Results from patent publication US4232008A, “Tetrapeptides and methods” (Ortho Pharmaceutical Corporation, priority 1978, dated 1980).
Square brackets hold non-standard residues; d marks the D form. Ends that are not written are not given here. Peptide text beside a SMILES is read from it. Glx = not defined here; Sar = CNCC(=O)O

Key:
[1] = system: Th-1+ T-lymphocytes and Bu-1+ B-lymphocytes (differentiation of inducible bone marrow cells); test: chicken induction assay; assay type: cell-based; conditions: for biological activity: induction of differentiation of Th-1+ T and Bu-1+ B lymphocytes, compared with ubiquitin: chicken bone marrow cells, cytotoxicity index readout; for concentration at which activity was observed: chicken induction assay
Excerpt: To determine the activity and characteristics of the tetrapeptide produced in Example I, the following chicken induction assay was employed. This assay is described in greater detail in Brand, et. al., Science, 193 319-321 (July 23, 1976) and references contained therein.
Bone marrow from newly-hatched chickens was selected as a source of inducible cells because it lacks an appreciable number of Bu-1^+ or Th-1^+ cells. Pooled cells from femur and tibiotarsus of five newly-hatched chicks of strains SC (Hy-Line) were fractionated by ultracentrifugation on a five-layer discontinuous bovine serum albumin (BSA) gradient. Cells from the two lighter layers were combined, washed, and suspended for incubation at a concentration of 5×10^6 cells per milliliter with the appropriate concentration of test polypeptide in RPMI 1630 medium supplemented with 15 mM hepes, 5 percent γ-globulin-free fetal calf serum, deoxyribonuclease (14 to 18 unit/ml), heparin (5 unit/ml), penicillin (100 unit/ml), and streptomycin (100 μg/ml). Controls were incubated with BSA (1 μg/ml) or medium alone. After incubation, the cells were tested in the cytotoxicity assay using chicken Cl and guinea pig C2 to C9 complement fractions as described in the reference article. The proportion of Bu-1^+ or Th-1^+ cells in each layer was calculated as a cytotoxicity index, 100 (a-b)/a, where a and b are the percentages of viable cells in the complement control and test preparation, respectively. The percentage of cells induced was obtained by subtracting the mean values in the control incubations without inducing agents (usually 1 to 3 percent) from those of the test inductions.
This high dose of ubiquitin inactivates the ubiquitin receptors and thus prevents the induction of cells by any agent which acts through these receptors.

[2] = system: cytotoxic lymphocyte precursors (CLP); test: microculture limiting dilution assay of cytotoxic lymphocyte precursor frequencies after injection of the drug; assay type: in vivo, mice (C57 BL/6J); conditions: in vitro assay of spleen cells after administration
Description: To further illustrate the utility of the subject polypeptides, this example describes a microculture assay for estimating the frequencies of the cytotoxic lymphocytes produced upon stimulation by allogenic antigens. The frequencies of cytotoxic precursors between control animals and animals injected with various concentrations of the drug were compared by a limiting dilution assay.
The test animals (C57 BL/6J) were injected (i.v. or i.p.) with various concentrations of H--SAR--LYS--SAR--GLN--NH2 (the drug; identification no. G040) in 0.2 ml volume 24 hours before they were sacrificed for the experiments.
Cell suspensions from spleens of C57 BL/6J mice or DBA/2J mice were prepared by mincing the organ and pressing them through a wire mesh (60 gauge) with the plunger of a 5 c.c. syringe into a falcon petri dish (falcon 3002, 15×60 mm). The cell suspensions were allowed to stand at room temperature for 10 minutes to let the big chunks of tissue settle. The cell suspensions were then transferred to 15 ml Corning centrifuge tubes (Corning 25310) and spun for 10 minutes at 1500 RPM in the Beckmen TJ-6 centrifuge. […] After the third wash, the responder (C57 BL/6J) cells were resuspended in culture medium and counted in the Coulter counter. […] The DBA cells were then resuspended in the culture medium and counted in the Coulter counter. […]

T cells = conditions: E rosette assay, Bach articles; cited from earlier work
T cells and B cells = conditions: applicant's published investigation; cited from earlier work

Compound	biological activity: induction of differentiation of Th-1+ T and Bu-1+ B lymphocytes, compared with ubiquitin [1]	also measured
C[C@H](N)C(=O)N[C@@H](CCCCN)C(=O)N[C@@H](CO)C(=O)N[C@@H](CCC(N)=O)C(=O)O [Example I, H--ALA--LYS--SER--GLN--OH] (H-AKSQ-OH)	biological activity similar to that of ubiquitin	concentration at which activity was observed [1]: ng/ml concentrations
C[C@@H](N)C(=O)N[C@@H](CCCCN)C(=O)N[C@H](C)C(=O)N[C@@H](CCC(N)=O)C(N)=O [H--D--ALA--LYS--D--ALA--GLN--NH2] (H-[dA]K[dA]Q-NH2)	biological activity similar to that of ubiquitin	–
CNCC(=O)N[C@@H](C)C(=O)N[C@@H](CCCCN)C(=O)N[C@@H](CO)C(=O)N[C@@H](CCC(N)=O)C(=O)O [H--SAR--ALA--LYS--SER--GLN--OH] (H-[Sar]AKSQ-OH)	biological activity similar to that of ubiquitin	–
CNCC(=O)N[C@@H](CCCCN)C(=O)N[C@H](C)C(=O)N[C@@H](CCC(N)=O)C(N)=O [H--SAR--LYS--D--ALA--GLN--NH2] (H-[Sar]K[dA]Q-NH2)	biological activity similar to that of ubiquitin	–
CNCC(=O)N[C@@H](CCCCN)C(=O)N(C)CC(=O)N[C@@H](CCC(N)=O)C(N)=O [H--SAR--LYS--SAR--GLN--NH2] (H-[Sar]K[Sar]Q-NH2)	biological activity similar to that of ubiquitin	effect on in vivo production of cytotoxic lymphocyte precursors upon stimulation by allogenic antigens [2]: promoted the production of cytotoxic lymphocyte precursors; concentration at which activity was observed [1]: ≥ 0.1 pg/mL
GLX--ALA--LYS--SER--GLN--GLY--GLY--SER--ASN (Glx-AKSQGGSN; reading uncertain; also: N-terminal Glx: Gln or pyroglutamic acid, printed as GLX--ALA--LYS--SER--GLN--GLY--GLY--SER--ASN) [FTS, nonapeptide isolated from porcine serum by Bach; GLX is glutamine or pyroglutamic acid]	–	differentiation of T cells versus B cells (T cells): selectively differentiated T cells (and not B cells); differentiation of T cells and B cells (T cells and B cells): differentiated both T cells and B cells
QAKSQ [H--GLN--ALA--LYS--SER--GLN--OH]	biological activity similar to that of ubiquitin	–
QAKSQGGSN [H--GLN--ALA--LYS--SER--GLN--GLY--GLY--SER--ASN--OH, reference compound]	biological activity similar to that of ubiquitin	–
